Patent publication US10202356B2, “JAK2 and ALK2 inhibitors and methods for their use” (Tolero Pharmaceuticals, Inc., priority 2013, dated 2019)
Where two headings read alike, the source gives them in different places. One block for each compound: values may come before it.

What was measured:
[1] = Pharmacokinetic profile, IV and PO administration; assay type: in vivo, female rats; set-up: AUC 0-inf: concentration or dose not given beside the values; conditions: for half-life: read-out: t½ (converted)
ALK2 = target: T1, ALK2 (Homo sapiens, UniProt Q04771); assay: ALK2 inhibition, LanthaScreen binding assay
T1 construct: purchased Life Technologies (Drug Discovery and Development Services, Madison, Wis.)
T1 sequence (Q04771 21-509): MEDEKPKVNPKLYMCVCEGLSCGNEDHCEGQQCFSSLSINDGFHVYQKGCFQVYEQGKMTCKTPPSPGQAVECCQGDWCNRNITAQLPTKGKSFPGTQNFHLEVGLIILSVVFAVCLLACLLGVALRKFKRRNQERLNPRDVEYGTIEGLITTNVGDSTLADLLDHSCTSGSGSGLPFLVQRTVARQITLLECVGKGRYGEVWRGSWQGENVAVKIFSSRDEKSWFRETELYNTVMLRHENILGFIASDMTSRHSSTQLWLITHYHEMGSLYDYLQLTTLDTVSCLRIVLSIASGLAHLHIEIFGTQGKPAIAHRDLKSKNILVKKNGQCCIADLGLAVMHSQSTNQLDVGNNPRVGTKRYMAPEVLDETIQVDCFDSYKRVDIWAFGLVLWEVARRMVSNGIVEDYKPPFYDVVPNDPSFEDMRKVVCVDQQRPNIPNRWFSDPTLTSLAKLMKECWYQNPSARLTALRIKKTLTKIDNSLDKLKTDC
Experimental: (§1) Biochemical assays to measure the inhibitory effects of the compounds were performed by the Drug Discovery and Development Services at Life Technologies (Madison, Wis.). JAK2 kinase assays were performed using Z′-LYTE® technology, while ALK2 inhibition was tested using a LanthaScreen® binding assay.

JAK2 kinase = target: T2, JAK2 kinase (Homo sapiens, UniProt O60674); assay: JAK2 kinase assay, Z'-LYTE technology; assay type: biochemical
T2 construct: purchased Life Technologies (Drug Discovery and Development Services, Madison, Wis.)
Experimental: as §1

hepcidin expression = assay: Liver hepcidin expression in mice after single oral dose, real-time RT-PCR; assay type: in vivo; conditions: single oral dose 250 mg/kg, liver mRNA after six hours
Experimental: Hepcidin expression in the mice treated with compounds 4 and 12 was compared to hepcidin expression in mice treated with compound A. In this experiment, mice were treated orally with a single dose of test compound. After six hours, livers were removed from euthanized animals and RNA extracted. Hepcidin mRNA levels were determined by real-time RT-PCR as described above.

[2] = test system: hepcidin expression induced by BMP2 in HEPG2 cells; assay: BMP2-induced hepcidin expression in HEPG2 cells; assay type: cell-based; conditions: 0.3 μM
[3] = test system: hepcidin expression of HEPG2 cells; assay: Baseline hepcidin expression in HEPG2 cells, real-time RT-PCR; assay type: cell-based; conditions: 3 μM, 6 hours, HEPG2, normalized to β-actin
Experimental: Hepcidin expression of HEPG2 cells treated with exemplary compounds of the invention was tested. […] To observe the ability of the compounds to effect baseline hepcidin expression, HEPG2 (hepatocellular carcinoma) cells were treated with compound for 6 hours and then assayed for hepcidin expression by real-time RT-PCR (normalized to levels of β-actin). Hepcidin expression was lowered in a dose dependent manner. Hepcidin expression was inhibited by 90% at a 3 μM concentration of Compound 12. […] In contrast, Compound 7 treated cells produced a 50% decrease in the induction when treated at 0.3 μM.

[4] = PO, free base or salt form as labelled

T2 sequence (O60674 whole entry): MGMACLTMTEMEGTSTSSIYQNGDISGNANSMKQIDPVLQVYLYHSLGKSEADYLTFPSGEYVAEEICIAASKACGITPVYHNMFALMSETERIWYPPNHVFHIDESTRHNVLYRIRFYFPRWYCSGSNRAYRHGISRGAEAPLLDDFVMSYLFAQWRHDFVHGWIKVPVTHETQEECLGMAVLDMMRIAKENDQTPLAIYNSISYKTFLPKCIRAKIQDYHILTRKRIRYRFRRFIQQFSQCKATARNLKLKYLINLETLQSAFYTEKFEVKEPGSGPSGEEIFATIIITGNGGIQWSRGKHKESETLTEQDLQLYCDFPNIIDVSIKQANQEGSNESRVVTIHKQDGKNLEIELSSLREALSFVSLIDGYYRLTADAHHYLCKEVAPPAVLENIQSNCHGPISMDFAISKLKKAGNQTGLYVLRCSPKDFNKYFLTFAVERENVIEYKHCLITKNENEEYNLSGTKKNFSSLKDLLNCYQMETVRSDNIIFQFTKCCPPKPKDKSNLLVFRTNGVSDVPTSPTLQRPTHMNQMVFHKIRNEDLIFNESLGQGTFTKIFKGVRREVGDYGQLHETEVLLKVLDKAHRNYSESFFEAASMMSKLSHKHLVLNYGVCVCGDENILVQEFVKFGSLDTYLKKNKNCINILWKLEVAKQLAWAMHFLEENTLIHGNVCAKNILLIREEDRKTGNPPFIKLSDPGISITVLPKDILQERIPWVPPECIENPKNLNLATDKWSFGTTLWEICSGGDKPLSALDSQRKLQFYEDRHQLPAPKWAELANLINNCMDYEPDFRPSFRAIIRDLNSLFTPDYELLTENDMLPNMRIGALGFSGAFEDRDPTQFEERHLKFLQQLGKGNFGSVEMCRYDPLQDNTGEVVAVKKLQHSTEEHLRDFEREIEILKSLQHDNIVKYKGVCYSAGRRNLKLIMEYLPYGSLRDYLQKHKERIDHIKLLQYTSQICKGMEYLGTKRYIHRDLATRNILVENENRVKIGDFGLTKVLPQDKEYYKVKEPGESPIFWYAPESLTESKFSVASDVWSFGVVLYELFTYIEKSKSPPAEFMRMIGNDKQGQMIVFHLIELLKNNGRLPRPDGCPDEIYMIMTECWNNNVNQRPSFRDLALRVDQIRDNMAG

Compound: CC(=O)O [Acetate]
AUC 0-inf [1, 4]: 1200.1 ng·h/mL | Cmax [1, 4]: 176.8 ng/mL | F [1, 4]: 24.7 % IV | Tmax [1, 4]: 0.5 h | t½ [1, 4]: 5.8 h

Compound: CN1CCN(c2ccc(Nc3ncc(Cl)c(Nc4cccc(CC#N)c4)n3)cc2F)CC1 [Compound 1, 2-(3-((5-chloro-2((3-fluoro-4-(4-methylpiperazin-1-yl)phenyl)amino)pyrimidin-4-yl)amino)phenyl)acetonitrile]
IC50 (ALK2): > 1 µM | IC50 (JAK2 kinase): > 1 µM

Compound: Cc1cnc(Nc2ccc(N3CCN(C)CC3)c(F)c2)nc1Nc1cccc(CC#N)c1 [Compound 2, 2-(3-((2-((3-fluoro-4-(4-methylpiperazin-1-yl)phenyl)amino)-5-methylpyrimidin-4-yl)amino)phenyl)acetonitrile]
IC50 (ALK2): > 1 µM | IC50 (JAK2 kinase): > 1 µM

Compound: CN1CCN(c2ccc(Nc3ncc(C#N)c(Nc4cccc(CC#N)c4)n3)cc2F)CC1 [Compound 3, 4-((3-(cyanomethyl)phenyl)amino)-2((3-fluoro-4-(4-methylpiperazin-1-yl)phenyl)amino)pyrimidine-5-carbonitrile]
IC50 (ALK2): > 1 µM | IC50 (JAK2 kinase): > 1 µM

Compound: COc1cc(Nc2nccc(Nc3cccc(C4(C#N)CC4)c3)n2)cc(OC)c1OC [Compound 5, 1-(3-(2-(3,4,5-trimethoxyphenylamino)pyrimidin-4-ylamino)phenyl)cyclopropanecarbonitrile]
IC50 (ALK2): > 1 µM | IC50 (JAK2 kinase): < 0.01 µM

Compound: COc1cnc(Nc2ccc(N3CCN(CCO)CC3)c(Cl)c2)nc1Nc1cccc(C2(C#N)CC2)c1 [Compound 9, 1-(3-(2-(3-chloro-4-(4-(2-hydroxyethyl)piperazin-1-yl)phenylamino)-5-methoxypyrimidin-4-ylamino)phenyl)cyclopropanecarbonitrile]
IC50 (ALK2): > 1 µM | IC50 (JAK2 kinase): 0.01 to 1 µM

Compound: COc1cnc(Nc2ccc(N3CCN(CCO)CC3)c(Cl)c2)nc1Nc1cccnc1-c1ccccn1 [Compound 13, 2-(4-(4-(4-(2,2′-bipyridin-3-ylamino)-5-methoxypyrimidin-2-ylamino)-2-chlorophenyl)piperazin-1-yl)ethanol]
IC50 (ALK2): > 1 µM | IC50 (JAK2 kinase): > 1 µM

Compound: COc1cc(Nc2ncc(OC)c(Nc3cccnc3-c3ccccn3)n2)ccc1N1CCN(C)CC1 [Compound 14, N^4-([2,2′-bipyridin]-3-yl)-5-methoxy-N^2-(3-methoxy-4-(4-methylpiperazin-1-yl)phenyl)pyrimidine-2,4-diamine]
IC50 (ALK2): > 1 µM | IC50 (JAK2 kinase): 0.01 to 1 µM

Compound: O=C(O)C(O)C(O)C(=O)O (stereo not drawn) [Tartaric]
AUC 0-inf [1, 4]: 370.9 ng·h/mL | Cmax [1, 4]: 18.5 ng/mL | Tmax [1, 4]: 0.3 h

Compound: Citrate
AUC 0-inf [1, 4]: 801.5 ng·h/mL | Cmax [1, 4]: 93.4 ng/mL | F [1, 4]: 22.4 % IV | Tmax [1, 4]: 0.5 h | t½ [1, 4]: 6.8 h

Compound: H2SO4 [Compound H2SO4]
AUC 0-inf [1, 4]: 538.3 ng·h/mL | Cmax [1, 4]: 53.8 ng/mL | F [1, 4]: 17.8 % IV | Tmax [1, 4]: 1.0 h | t½ [1, 4]: 9.2 h

Compound: Maleate
AUC 0-inf [1, 4]: 484.8 ng·h/mL | Cmax [1, 4]: 34.2 ng/mL | F [1, 4]: 12.1 % IV | Tmax [1, 4]: 8.0 h | t½ [1, 4]: 8.5 h

Compound: Oxalate
AUC 0-inf [1, 4]: 721.2 ng·h/mL | Cmax [1, 4]: 81.9 ng/mL | F [1, 4]: 17.3 % IV | Tmax [1, 4]: 0.5 h | t½ [1, 4]: 7.3 h

Further lines, with some results ahead:

IC50 (ALK2): 0.01 to 1 µM | IC50 (JAK2 kinase): < 0.01 µM | F ([1]; IV): 100.0 % IV | F [1, 4]: 15.4 % IV | plasma concentration levels after 24 hours ([1]; female rats): remain high | AUC 0-inf ([1]; female, rat, plasma, iv, read-out: AUC 0-inf): 1380 ng·h/mL | Cmax ([1]; female, rat, plasma, iv, read-out: Cmax): 996 ng/mL | Tmax ([1]; female, rat, plasma, iv, read-out: Tmax): 0 h | half-life ([1]; female, rat, plasma, iv): 9.2 h | AUC 0-inf ([1]; female, rat, plasma, PO, free base or salt form as labelled, read-out: AUC 0-inf): 852 ng·h/mL | Cmax ([1]; female, rat, plasma, PO, free base or salt form as labelled, read-out: Cmax): 118 ng/mL | Tmax ([1]; female, rat, plasma, PO, free base or salt form as labelled, read-out: Tmax): 2 h | half-life ([1]; female, rat, plasma, PO, free base or salt form as labelled): 6.5 h
Compound: COc1cc(Nc2nccc(Nc3cccc(C4(C#N)CC4)c3)n2)ccc1N1CCN(C)CC1 [Compound 4, 1-(3-(2-(3-methoxy-4-(4-methylpiperazin-1-yl)phenylamino)pyrimidin-4-ylamino)phenyl)cyclopropanecarbonitrile]
hepcidin expression in mice compared to compound A (hepcidin expression): inhibit hepcidin expression to a greater extent than compound A

IC50 (ALK2): 0.01 to 1 µM | IC50 (JAK2 kinase): < 0.01 µM
Compound: N#CC1(c2cccc(Nc3ccnc(Nc4ccc(N5CCN(CCO)CC5)c(Cl)c4)n3)c2)CC1 [Compound 7, 1-(3-((2-((3-chloro-4-(4-(2-hydroxyethyl)piperazin-1-yl)phenyl)amino)pyrimidin-4-yl)amino)phenyl) cyclopropanecarbonitrile]
decrease in the BMP2 induction of hepcidin [2]: 50%

IC50 (ALK2): 0.01 to 1 µM | IC50 (JAK2 kinase): < 0.01 µM
Compound: CN1CCN(c2ccc(Nc3nccc(Nc4cccc(C5(C#N)CC5)c4)n3)cc2F)CC1 [Compound 8, 1-(3-((2-((3-fluoro-4-(4-methylpiperazin-1-yl)phenyl)amino)pyrimidin-4-yl)amino)phenyl)cyclopropanecarbonitrile]

IC50 (ALK2): 0.01 to 1 µM | IC50 (JAK2 kinase): 0.01 to 1 µM
Compound: OCCN1CCN(c2ccc(Nc3nccc(Nc4cccnc4-c4ccccn4)n3)cc2Cl)CC1 [Compound 10, 2-(4-(4-(4-(2,2′-bipyridin-3-ylamino)pyrimidin-2-ylamino)-2-chlorophenyl)piperazin-1-yl)ethanol]

IC50 (ALK2): < 0.01 µM | IC50 (JAK2 kinase): > 1 µM
Compound: COc1cc(Nc2nccc(Nc3cccnc3-c3ccccn3)n2)ccc1N1CCN(C)CC1 [Compound 11, N^4-(2,2′-bipyridin-3-yl)-N^2-(3-methoxy-4-(4-methylpiperazin-1-yl)phenyl)pyrimidine-2,4-diamine]

IC50 (ALK2): < 0.01 µM | IC50 (JAK2 kinase): > 1 µM | plasma concentration levels after 24 hours ([1]; female rats): remained high | bioavailability ([1]; rat, plasma, female rats, oral dose): 95%
Compound: COc1cc(Nc2nccc(Nc3cccnc3-c3ccccn3)n2)cc(OC)c1OC [Compound 12, N^4-(2,2′-bipyridin-3-yl)-N^2-(3,4,5-trimethoxyphenyl)pyrimidine-2,4-diamine]
Hepcidin expression inhibited [3]: 90%

IC50 (ALK2): 0.01 to 1 µM | IC50 (JAK2 kinase): > 1 µM
Compound: Cc1ccc(Nc2ccnc(Nc3ccc(N4CCN(CCO)CC4)c(Cl)c3)n2)c(-c2ccccn2)n1 [Compound 15, 2-(4-(2-chloro-4-(4-(6-methyl-2,2′-bipyridin-3-ylamino)pyrimidin-2-ylamino)phenyl)piperazin-1-yl)ethanol]

IC50 (ALK2): 0.01 to 1 µM | IC50 (JAK2 kinase): > 1 µM
Compound: COc1cc(Nc2nccc(Nc3ccc(C)nc3-c3ccccn3)n2)ccc1N1CCN(C)CC1 [Compound 16, N^2-(3-methoxy-4-(4-methylpiperazin-1-yl)phenyl)-N^4-(6-methyl-2,2′-bipyridin-3-yl)pyrimidine-2,4-diamine]

IC50 (ALK2): 0.01 to 1 µM | IC50 (JAK2 kinase): > 1 µM
Compound: COc1cc(Nc2nccc(Nc3ccc(C)nc3-c3ccccn3)n2)cc(OC)c1OC [Compound 17, N^4-(6-methyl-2,2′-bipyridin-3-yl)-N^2-(3,4,5-trimethoxyphenyl)pyrimidine-2,4-diamine]

IC50 (ALK2): 0.01 to 1 µM | IC50 (JAK2 kinase): 0.01 to 1 µM
Compound: Cc1ccc(Nc2ccnc(Nc3ccc(N4CCN(CCO)CC4)c(Cl)c3)n2)c(CC#N)c1 [Compound 18, 2-(2-(2-(3-chloro-4-(4-(2-hydroxyethyl)piperazin-1-yl)phenylamino)pyrimidin-4-ylamino)-5-methylphenyl)acetonitrile]

IC50 (ALK2): 0.01 to 1 µM | IC50 (JAK2 kinase): 0.01 to 1 µM
Compound: COc1cc(Nc2nccc(Nc3ccc(C)cc3CC#N)n2)ccc1N1CCN(C)CC1 [Compound 19, 2-(2-(2-(3-methoxy-4-(4-methylpiperazin-1-yl)phenylamino)pyrimidin-4-ylamino)-5-methylphenyl)acetonitrile]

IC50 (ALK2): 0.01 to 1 µM | IC50 (JAK2 kinase): < 0.01 µM
Compound: COc1cc(Nc2nccc(Nc3ccc(C)c(CC#N)c3)n2)ccc1N1CCN(C)CC1 [Compound 21, 2-(5-(2-(3-methoxy-4-(4-methylpiperazin-1-yl)phenylamino)pyrimidin-4-ylamino)-2-methylphenyl)acetonitrile]

IC50 (ALK2): 0.01 to 1 µM | IC50 (JAK2 kinase): 0.01 to 1 µM
Compound: N#CCc1cc(F)ccc1Nc1ccnc(Nc2ccc(N3CCN(CCO)CC3)c(Cl)c2)n1 [Compound 22, 2-(2-(2-(3-chloro-4-(4-(2-hydroxyethyl)piperazin-1-yl)phenylamino)pyrimidin-4-ylamino)-5-fluorophenyl) acetonitrile]
